Experimental findings from patent publication US11225505B2, “Antimicrobial polymyxin derivative compounds” (MONASH UNIVERSITY, priority 2015, dated 2022) are described below.

What all share (assay type): cell-based
Assay [1] deals with Acinetobacter baumannii FADDI-AB030. The experiment in a line: microbe, parasite or virus in culture. As to conditions: FADDI-AB030. An outline of the steps: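 Lipopeptide TFA salts tested against the multidrug-resistant clinical isolate by CLSI (M100-S24) broth microdilution in cation-adjusted Mueller-Hinton broth, with polymyxin B sulphate as control; MIC read.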
In assay [2] the test system is Enterobacter cloacae FADDI-EC006. The settings on record: FADDI-EC006. The method in brief:
(§1)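 Susceptibility of polymyxin-susceptible Gram-negative strains, including multidrug-resistant clinical isolates PA022 and AB034, was tested by broth microdilution. Cation-adjusted Mueller-Hinton broth and the CLSI M100-S24 method were used.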

The test system of assay [3] is Acinetobacter baumannii ATCC 17978. As to conditions: ATCC 17978. An outline of the steps:
as §1

The subject of assay [4] is Klebsiella pneumoniae FADDI-KP022. The settings on record: FADDI-KP022. An outline of the steps:
as §1

The subject of assay [5] is Enterobacter cloacae FADDI-EC003. The settings on record: FADDI-EC003. An outline of the steps: as §1
The subject of assay [6] is Enterobacter cloacae FADDI-EC001. As to conditions: FADDI-EC001. An outline of the steps:
(§2)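 MICs were determined by broth microdilution in cation-adjusted Mueller-Hinton broth following the CLSI M100-S24 protocol. Lipopeptides were tested as trifluoroacetic acid salts against polymyxin-susceptible Gram-negative strains, with polymyxin B sulphate as control. FADDI-PA022 and FADDI-AB034 are multidrug-resistant clinical isolates.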

Assay [7] deals with Klebsiella pneumoniae Kp BM1. The settings on record: Kp BM1. An outline of the steps:
as §2

Assay [8] deals with Pseudomonas aeruginosa FADDI-PA01. The settings on record: FADDI-. The method in brief:
as §1

Assay [9] deals with Pseudomonas aeruginosa FADDI-PA022. As to conditions: FADDI-PA022. An outline of the steps:
as §1

In assay [10] the test system is Klebsiella pneumoniae FADDI-KP032. The settings on record: FADDI-KP032. The method in brief:
as §1

The subject of assay [11] is Pseudomonas aeruginosa ATCC 27853. The settings on record: ATCC 27853. The method in brief:
as §1

Assay [12] deals with Pseudomonas aeruginosa FADDI-PA038. As to conditions: FADDI-PA038. An outline of the steps:
as §1

Assay [13] concerns Acinetobacter baumannii FADDI-AB034. The settings on record: FADDI-AB034. The method in brief: as §1

In brackets after ≈: the same amount, converted by molar mass. Where a SMILES comes first, the peptide text is derived from it. Bridges are numbered along the chain shown (N, C = ends). [ ]: non-standard residue; d: D form. The star is where a group is joined. X13 = O=C(c1ccnc(Br)c1)*; X25 = O=C(c1ccnc(Cl)c1)*; X33 = O=C(c1cncc(Br)c1)*; Dab = NCC[C@H](N)C(=O)O; Abu = CC[C@H](N)C(=O)O; Dap = NC[C@H](N)C(=O)O Some results are limits rather than exact numbers.

For `CC[C@@H]1NC(=O)[C@@H](CC(C)C)NC(=O)[C@H](CCN)NC(=O)[C@@H](NC(=O)[C@H](CN)NC(=O)[C@@H](NC(=O)[C@H](CCN)NC(=O)c2cncc(Br)c2)[C@@H](C)O)CCNC(=O)[C@H]([C@@H](C)O)NC(=O)[C@H](CCN)NC(=O)[C@H](CCN)NC1=O` [Compound 23] (X33-[Dab]T[Dap][Dab][Dab][dL][Abu][Dab][Dab]T; lactam 4-C), the Minimum inhibitory concentration was 0.5 µg/mL (≈ 0.427 µM) in assay [1]; 4 µg/mL (≈ 3.42 µM) in assay [2]; 2 µg/mL (≈ 1.71 µM) in assay [3]; under 0.125 µg/mL in assay [4]; 0.5 µg/mL (≈ 0.427 µM) in assay [5]; 0.5 µg/mL (≈ 0.427 µM) in [6]. Further, the Minimum inhibitory concentration in [7] stood at 0.25 µg/mL (≈ 0.213 µM); in [8] it was 0.5 µg/mL (≈ 0.427 µM); in [9], 0.25 µg/mL (≈ 0.213 µM); in assay [10], 0.5 µg/mL (≈ 0.427 µM); in assay [11], 0.25 µg/mL (≈ 0.213 µM); in assay [12], 0.5 µg/mL (≈ 0.427 µM). In [13], this compound had a Minimum inhibitory concentration of 0.5 µg/mL (≈ 0.427 µM).

Regarding `CC[C@@H]1NC(=O)[C@@H](CC(C)C)NC(=O)[C@H](CCN)NC(=O)[C@@H](NC(=O)[C@H](CN)NC(=O)[C@@H](NC(=O)[C@H](CCN)NC(=O)c2ccnc(Cl)c2)[C@@H](C)O)CCNC(=O)[C@H]([C@@H](C)O)NC(=O)[C@H](CCN)NC(=O)[C@H](CCN)NC1=O` [Compound 24] (X25-[Dab]T[Dap][Dab][Dab][dL][Abu][Dab][Dab]T; lactam 4-C), the Minimum inhibitory concentration is 1 µg/mL (≈ 0.888 µM) in assay [1]; 4 µg/mL (≈ 3.55 µM) in [2]; 2 µg/mL (≈ 1.78 µM) in assay [3]; under 0.125 µg/mL in [4]; 0.25 µg/mL (≈ 0.222 µM) in [5]; 0.25 µg/mL (≈ 0.222 µM) in [6]. Further, the Minimum inhibitory concentration in assay [7] is 0.25 µg/mL (≈ 0.222 µM); in assay [8] it was 0.25 µg/mL (≈ 0.222 µM); in assay [9], 0.25 µg/mL (≈ 0.222 µM); in assay [10], 0.5 µg/mL (≈ 0.444 µM); in assay [11], 0.25 µg/mL (≈ 0.222 µM); in [12] it was 1 µg/mL (≈ 0.888 µM). Moreover, the Minimum inhibitory concentration in [13] was 1 µg/mL (≈ 0.888 µM).

In the case of `CC[C@@H]1NC(=O)[C@@H](CC(C)C)NC(=O)[C@H](CCN)NC(=O)[C@@H](NC(=O)[C@H](CN)NC(=O)[C@@H](NC(=O)[C@H](CCN)NC(=O)c2ccnc(Br)c2)[C@@H](C)O)CCNC(=O)[C@H]([C@@H](C)O)NC(=O)[C@H](CCN)NC(=O)[C@H](CCN)NC1=O` [Compound 25] (X13-[Dab]T[Dap][Dab][Dab][dL][Abu][Dab][Dab]T; lactam 4-C), the Minimum inhibitory concentration in assay [1] was 1 µg/mL (≈ 0.854 µM); in assay [2] it was 2 µg/mL (≈ 1.71 µM); in assay [3], 1 µg/mL (≈ 0.854 µM); in assay [4] it was under 0.125 µg/mL; in assay [5], under 0.125 µg/mL; in assay [6], 0.5 µg/mL (≈ 0.427 µM). Besides, the Minimum inhibitory concentration in [7] was 0.25 µg/mL (≈ 0.213 µM); in assay [8], 0.25 µg/mL (≈ 0.213 µM); in assay [9], 0.25 µg/mL (≈ 0.213 µM); in assay [10], 0.25 µg/mL (≈ 0.213 µM); in [11] it was 0.25 µg/mL (≈ 0.213 µM); in [12] it was 1 µg/mL (≈ 0.854 µM). The compound further gave a Minimum inhibitory concentration in assay [13] of 1 µg/mL (≈ 0.854 µM).
